Series [1] can be described thus: Plasma stability (Human). It counts as in vitro ADME. On the procedure: Plasma stability of disclosed compounds was investigated. The following table indicates the percent of compound remaining after 60 minutes.
Series [2] has as its target T1, NMDAR2B expressing HEK cell membranes (Homo sapiens, UniProt Q05586+Q13224).
T1 construct: expressed in transfected cells; host or cells: HEK cells (membrane extract)
Description: NMDAR agonist assay, [3H]MK-801 binding, NMDAR2B. It counts as biochemical. On the procedure: (§1) (nonequilibrium conditions).
(§2) The baseline value was determined from the best fit curve of the DPM values modeled using the GraphPad program and the log(agonist) vs. response(three parameters) algorithm was then subtracted from all points in the dataset.

In series [3] the target is T2, NMDAR2C expressing HEK cell membranes (Homo sapiens, UniProt Q05586+Q14957).
T2 construct: expressed in transfected cells; host or cells: HEK cells (membrane extract)
Put plainly: NMDAR agonist assay, [3H]MK-801 binding, NMDAR2C. It counts as biochemical. On the procedure: as §1, §2

Series [4] is described as follows: Oral pharmacokinetics (plasma, brain, CSF). It counts as in vivo. To be noted: Sprague Dawley rats, per os, 10 mg/kg. Here is the method: In another experiment, Sprague Dawley rats were dosed per os using a normal saline formulation containing 10 mg/kg of the compounds identified in the table below. Plasma, brain, and CSF samples were analyzed at various time points over a 24 hour period. The table below summarizes the results of the oral pharmacokinetics.

T1 sequence (Q13224 27-1484, other chains not shown): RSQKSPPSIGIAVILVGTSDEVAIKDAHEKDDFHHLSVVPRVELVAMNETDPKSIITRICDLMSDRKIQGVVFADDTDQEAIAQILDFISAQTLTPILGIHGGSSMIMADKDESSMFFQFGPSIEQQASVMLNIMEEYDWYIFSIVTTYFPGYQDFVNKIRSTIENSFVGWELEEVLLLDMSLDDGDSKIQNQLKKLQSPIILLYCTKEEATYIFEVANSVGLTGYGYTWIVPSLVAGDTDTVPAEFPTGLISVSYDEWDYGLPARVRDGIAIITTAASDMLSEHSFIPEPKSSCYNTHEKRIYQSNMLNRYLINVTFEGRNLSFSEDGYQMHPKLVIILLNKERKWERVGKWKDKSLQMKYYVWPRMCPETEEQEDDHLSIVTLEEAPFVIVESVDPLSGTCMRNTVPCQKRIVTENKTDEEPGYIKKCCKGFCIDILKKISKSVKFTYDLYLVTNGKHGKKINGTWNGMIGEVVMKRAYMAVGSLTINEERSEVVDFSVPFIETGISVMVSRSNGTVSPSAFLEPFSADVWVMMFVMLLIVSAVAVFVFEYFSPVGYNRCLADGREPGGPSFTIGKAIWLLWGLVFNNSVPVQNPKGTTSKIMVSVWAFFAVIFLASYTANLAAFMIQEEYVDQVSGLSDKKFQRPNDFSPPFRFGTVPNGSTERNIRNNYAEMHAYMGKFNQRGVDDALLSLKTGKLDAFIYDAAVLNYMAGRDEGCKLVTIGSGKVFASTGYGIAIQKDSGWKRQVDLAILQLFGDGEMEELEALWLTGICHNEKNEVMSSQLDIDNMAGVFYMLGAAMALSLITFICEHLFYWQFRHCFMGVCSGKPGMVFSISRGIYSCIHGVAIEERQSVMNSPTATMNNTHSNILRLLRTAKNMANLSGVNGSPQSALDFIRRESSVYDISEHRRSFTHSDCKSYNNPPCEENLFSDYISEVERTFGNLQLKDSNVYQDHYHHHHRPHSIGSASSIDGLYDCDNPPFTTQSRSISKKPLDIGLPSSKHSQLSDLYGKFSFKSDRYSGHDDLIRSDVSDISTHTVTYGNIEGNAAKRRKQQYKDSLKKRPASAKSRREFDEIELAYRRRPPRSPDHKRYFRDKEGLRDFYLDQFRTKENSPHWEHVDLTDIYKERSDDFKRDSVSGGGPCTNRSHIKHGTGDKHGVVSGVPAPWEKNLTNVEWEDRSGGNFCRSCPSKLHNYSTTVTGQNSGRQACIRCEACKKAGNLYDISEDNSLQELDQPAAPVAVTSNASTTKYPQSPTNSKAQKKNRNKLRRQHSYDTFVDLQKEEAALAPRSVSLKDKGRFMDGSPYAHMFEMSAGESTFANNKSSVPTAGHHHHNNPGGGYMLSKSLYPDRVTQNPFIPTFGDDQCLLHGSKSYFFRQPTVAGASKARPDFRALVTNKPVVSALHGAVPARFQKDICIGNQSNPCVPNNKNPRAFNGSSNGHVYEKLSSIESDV
T2 sequence (Q14957 20-1233, other chains not shown): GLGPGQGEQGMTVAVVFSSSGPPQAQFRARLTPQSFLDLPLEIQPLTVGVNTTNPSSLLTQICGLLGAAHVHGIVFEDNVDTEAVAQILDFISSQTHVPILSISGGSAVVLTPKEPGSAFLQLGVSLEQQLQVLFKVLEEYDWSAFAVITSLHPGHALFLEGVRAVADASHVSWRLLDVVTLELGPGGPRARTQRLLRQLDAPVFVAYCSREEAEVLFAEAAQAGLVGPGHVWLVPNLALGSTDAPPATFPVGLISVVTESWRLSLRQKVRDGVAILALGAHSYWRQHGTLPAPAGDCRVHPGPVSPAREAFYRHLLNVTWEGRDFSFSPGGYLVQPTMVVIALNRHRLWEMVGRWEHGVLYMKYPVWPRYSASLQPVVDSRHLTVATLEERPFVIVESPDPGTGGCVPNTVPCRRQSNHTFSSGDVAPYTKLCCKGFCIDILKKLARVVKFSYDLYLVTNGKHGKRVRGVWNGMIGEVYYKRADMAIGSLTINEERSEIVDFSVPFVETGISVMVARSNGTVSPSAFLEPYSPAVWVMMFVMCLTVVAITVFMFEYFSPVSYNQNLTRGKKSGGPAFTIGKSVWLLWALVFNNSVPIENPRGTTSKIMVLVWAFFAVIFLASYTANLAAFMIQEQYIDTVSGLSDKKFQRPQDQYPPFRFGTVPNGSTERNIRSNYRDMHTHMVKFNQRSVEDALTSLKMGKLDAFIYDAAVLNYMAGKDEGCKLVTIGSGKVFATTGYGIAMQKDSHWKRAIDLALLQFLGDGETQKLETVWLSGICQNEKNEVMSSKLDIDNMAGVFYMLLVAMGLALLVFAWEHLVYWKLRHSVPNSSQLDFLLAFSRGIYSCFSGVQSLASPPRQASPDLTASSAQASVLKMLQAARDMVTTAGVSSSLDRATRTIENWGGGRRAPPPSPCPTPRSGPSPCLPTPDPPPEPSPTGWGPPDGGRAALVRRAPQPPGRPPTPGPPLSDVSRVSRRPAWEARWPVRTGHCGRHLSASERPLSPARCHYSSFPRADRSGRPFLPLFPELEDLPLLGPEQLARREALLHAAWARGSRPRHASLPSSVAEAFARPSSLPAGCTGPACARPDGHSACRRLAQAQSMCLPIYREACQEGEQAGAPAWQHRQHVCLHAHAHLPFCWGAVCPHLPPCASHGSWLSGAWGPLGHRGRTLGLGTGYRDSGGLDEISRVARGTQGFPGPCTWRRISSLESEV

As to `CC(C)CN1[C@@]2(CC[C@@]13CNC3=O)CNC2=O` [Compound AD, 5-isobutyl-2,5,8-triazadispiro[3.1.36.24]undecane-1,7-dione], the “Plasma (Human): percent of compound remaining after 60 minutes” value in series [1] is given as 83%. In addition, the EC50 in series [2] (NMDAR2B: log EC50, 50 μM glutamate, [3H]MK-801 binding) was under 1 nM; in series [3] (NMDAR2C: log EC50, 50 μM glutamate, [3H]MK-801 binding), under 1 nM. Besides, the Emax was under 100% in series [2] (read-out: NMDAR2B: % maximal [3H]MK-801 binding relative to 1 mM glycine, 50 μM glutamate, relative to 1 mM glycine) and under 100% in series [3] (read-out: NMDAR2C: % maximal [3H]MK-801 binding relative to 1 mM glycine). Further, the “CSF Cmax” value in series [4] (CSF) was found to be 1965.2 ng/mL. In series [4] (brain), the “Brain Cmax” value came out at 1143.2 ng/mL. Besides, the AUC(0-t) in series [4] (rat, plasma, po) is 19300 ng·h/mL. In series [4] (rat, plasma, po), this molecule showed a bioavailability of 82%. In addition, in series [4] (rat, plasma, po, normal saline, read-out: Tmax), the Tmax came to 19.8 min. Also, the Cmax in series [4] (rat, po, plasma, read-out: Cmax) came to 8560 ng/mL.

Values taken from patent US11028095B2, “Spiro-lactam and bis-spiro-lactam NMDA receptor modulators and uses thereof” (Aptinyx Inc., priority 2016, dated 2021).
